{"source": "patent US9273101B2", "about": "“Functionalized biomaterials for tissue regeneration” (Nanomed3D S.R.L., priority 2011, dated 2016)", "key": {"murine NSCs [1]": {"test_system": "murine NSCs", "assay": "Immunofluorescence of differentiated NSC progeny on SAP scaffolds, murine", "type": "cell-based", "experimental": "(§1) In vitro tests were performed as previously described (8), in order to assess whether the biomaterials (assembled hydrogels) obtained with the SAPs of the present invention influenced NSCs adhesion, survival and/or differentiation. SAPeptides (30 μl for each well at a concentration of 10 mg/ml) were assembled into 96 multiwells two hours before cell. Cells (at a concentration of 2×10^4 cells/cm^2) were seeded on the top-surface of each assembled scaffold. Initially, cells were cultured with basal medium supplemented with βFGF (10 ng/ml), added to […]. At 3 days in vitro (DIV), βFGF medium was replaced with Leukemia Inhibitory Factor (LIF, Chemicon) (20 ng/ml) and Brain Derived Neurotrophic Factor (BDNF, Peprotech) (20 ng/ml). Fresh medium was added every three days. For both viability and differentiation assays positive and negative controls consisted of Cultrex-BME® substrate (R&D systems) (1:100 dilution in basal medium) and untreated bottom well surfaces respectively. Cell viability was quantified via CellTiter 96® Aqueous Proliferation Assay (Promega) at 7 DIV as recommended in the Promega protocol. After calibrating the linear response between the cell number and absorbance values, proliferated cell populations were quantified (n=5) by using a Vmax microplate reader (Molecular Devices) at 490 nm wavelength. Values, reported as means±standard error of the mean, were blanked to their respective controls consisting of same substrates and cell culture media without cells.\n(§2) Immunofluorescence tests were performed for assaying the phenotypes of the differentiated human and murine NSC progenies. In the case of KLP and Ac-KLP just murine NSC have been used. Ac-KLP and KLP scaffolds were prepared at different concentrations in order to display three different stiffness values (viz. 100, 500 and 1000 Pa). This was done to assess the influence of scaffold concentration (and consequently its stiffness) over NSC differentiation. All the other peptides were tested at 1% v/w concentration instead. The following antibodies were used: rabbit polyclonal against GFAP (1:500, DakoCytomation) for astrocytes, mouse monoclonal against βIII-Tubulin (1:500, Covance) for neurons, mouse monoclonal against GalC (1:200, Chemicon) and O4 (1:200, Chemicon) for oligodendrocyes. Secondary Abs were Goat anti Mouse Alexa 488 (1:1000, Molecular Probes), Goat anti Mouse Cy3 (1:1000, Jackson Immunoresearch), Goat anti Rabbit Cy3 (1:1000, Jackson Immunoresearch). Cell nuclei were counterstained with DAPI (Molecular Probes). Quantitative analyses were performed by counting 100-300 cells for each of 9 randomly chosen fields over a total of 3 independent experiments. Phase contrast and fluorescence images of the adhering cells were acquired via Zeiss microscopes Axioplan 2 and ApoTome System at one week after seeding."}, "[2]": {"assay": "Rheology of SAPeptide solutions and self-assembled scaffolds", "type": "physicochemical", "details": "1% w/v, 2% w/v and 3% w/v", "experimental": "Rheological properties of the self-assembling peptides of the invention were determined using a controlled stress TA Instruments AR-2000ex rheometer (TA Instruments). A cone-and-plate geometry (acrylic cone diameter, 20 mm; angle, 1°; truncation gap 34 μm) was used. Preliminary strain sweeps were performed for each sample to define the linear viscoelastic region, thus ensuring that moduli were independent of strain. Time sweeps, after addition of PBS (1×) were recorded at 25 C (angular frequency ω=1 Hz) and continued till G′ plateaued. Frequency sweeps, both for peptide water solutions and for self-assembled scaffolds, were performed at 25 C with the instrument in oscillatory mode at controlled strain of 1%. Final strain sweeps was performed at 1 Hz oscillatory frequency and at 25 C: onset point of failure was calculated by linear interpolation and subsequent determination of the intersection of the G′ modes within the linear region and at material failure respectively."}, "human NSCs [3]": {"test_system": "human NSCs", "assay": "Immunofluorescence of differentiated NSC progeny on SAP scaffolds, human", "type": "cell-based", "details": "1% scaffold, compared to Cultrex positive control", "experimental": "as §1\nas §2, with “Cell nuclei were counterstained with DAPI (Molecular Probes).” left out"}, "human NSCs [4]": {"test_system": "human NSCs", "assay": "Imaging and cell proliferation assay (CellTiter 96 MTS) on assembled hydrogels, human NSCs", "type": "cell-based", "details": "7 DIV", "experimental": "as §1"}, "murine NSCs [5]": {"test_system": "murine NSCs", "assay": "Imaging and cell proliferation assay (CellTiter 96 MTS) on assembled hydrogels, murine NSCs", "type": "cell-based", "details": "7 DIV", "experimental": "as §1"}, "murine NSC": {"test_system": "murine NSC", "assay": "NSC differentiation on exposure to soluble heptapeptides (immunofluorescence)", "type": "cell-based", "details": "12 DIV, Cultrex and Laminin coated wells, peptide 0.1 mg/ml in media, vs untreated NSCs, p<0.05", "experimental": "In vitro tests were performed as previously described (8), in order to assess whether the heptapeptides obtained of the present invention influence NSCs differentiation.\nMurine cells (at a concentration of 2×10^4 cells/cm^2) were seeded in each well (96 multi-well plate) previously coated with Cultrex-BME® substrate (R&D systems) (1:100 dilution in basal medium, overnight incubation) or with Laminin (Roche) (1:5 dilution in PBS 1×, pH 7.4, overnight incubation).\nInitially, cells were cultured with basal medium supplemented with βFGF (10 ng/ml), added to enhance neuronal progeny differentiation. At 3 days in vitro (DIV), βFGF medium was replaced with Leukemia Inhibitory Factor (LIF, Chemicon) (20 ng/ml) and Brain Derived Neurotrophic Factor (BDNF, Peprotech) (20 ng/ml). Fresh medium was added every three days. The chosen peptides were dissolved in all cell culture media (but not in the coatings) at a concentration of 0.1 mg/ml.\nImmunofluorescence tests were performed for assaying the phenotypes of the differentiated murine NSC progenies. The following antibodies were used: rabbit polyclonal against GFAP (1:500, DakoCytomation) for astrocytes and mouse monoclonal against βIII-Tubulin (1:500, Covance) for neurons. Secondary Abs were Goat anti Mouse Alexa 488 (1:1000, Molecular Probes), Goat anti Mouse Cy3 (1:1000, Jackson Immunoresearch), Cell nuclei were counterstained with DAPI (Molecular Probes). Quantitative analyses were performed by counting 100-300 cells for each of 9 randomly chosen fields over a total of 3 independent experiments.\nValues, reported as means±standard error of the mean (FIG. 1A)."}, "[6]": {"details": "1% scaffold, compared to Cultrex positive control"}}, "note": "Entries after “also recorded” stand apart in the source; their conditions may differ."}
{"substance": "Ac-KLPGWSGGGGLDLKLDLKLDLK-CONH2 (Ac-KLPGWSGGGGLDLKLDLKLDLK-NH2)", "values": [{"measurement": "differentiated neurons (βIIITubulin positive cells) in correspondence of stiffness reductions", "setting": "murine NSCs [1]; scaffold stiffness 100, 500 and 1000 Pa", "value": "significant increments"}, {"measurement": "G′ and G″ values at different concentrations", "setting": "[2]", "value": "increased with concentration increments"}]}
{"substance": "NH2-FAQRVPPGGGLDLKLDLKLDLK-CONH2 (H-FAQRVPPGGGLDLKLDLKLDLK-NH2)", "values": [{"measurement": "number of neurons (βIII-Tubulin) obtained", "setting": "murine NSCs [1]; [6]", "value": "significantly higher"}, {"measurement": "number of oligodendrocytes (GalC/O4) obtained", "setting": "murine NSCs [1]; [6]", "value": "significantly higher"}, {"measurement": "number of neurons (βIII-Tubulin) obtained", "setting": "human NSCs [3]", "value": "significantly higher"}, {"measurement": "number of oligodendrocytes (GalC/O4) obtained", "setting": "human NSCs [3]", "value": "significantly higher"}, {"measurement": "cell morphology, adhesion and spreading on assembled hydrogels", "setting": "human NSCs [4]", "value": "spread and branched cells"}, {"measurement": "cell viability / proliferated cell population (MTS)", "setting": "human NSCs [4]; scaffolds 10 mg/ml, vs control, P<0.03", "value": "significantly fostered cell viability; also recorded: cell population was bigger; also recorded: significantly favored"}, {"measurement": "cell morphology, adhesion and spreading on assembled hydrogels", "setting": "murine NSCs [5]", "value": "spread and branched cells"}, {"measurement": "cell viability / proliferated cell population (MTS)", "setting": "murine NSCs [5]; scaffolds 10 mg/ml, vs control, P<0.005", "value": "significantly fostered cell viability; also recorded: cell population was bigger; also recorded: significantly favored"}]}
{"substance": "NH2-GETRAPL-CONH2 (H-GETRAPL-NH2) [#GET]", "values": [{"measurement": "percentage of differentiated neurons (Beta III Tubulin staining)", "setting": "murine NSC", "value": "significant increase"}]}
{"substance": "NH2-HAIYPRH-CONH2 (H-HAIYPRH-NH2) [#HAI]", "values": [{"measurement": "percentage of differentiated neurons (Beta III Tubulin staining)", "setting": "murine NSC", "value": "significant increase"}]}
{"substance": "NH2-KLPGWSG-CONH2 (H-KLPGWSG-NH2) [#KLP]", "values": [{"measurement": "percentage of differentiated neurons (Beta III Tubulin staining)", "setting": "murine NSC", "value": "significant increase; also recorded: Highest increase"}]}
